# Key:
# [1] = system: HNE-Induced Lung Hemorrhage; assay: Inhibitory effect on HNE-induced lung hemorrhage in hamsters; format: in vivo, male Syrian hamsters; conditions: Mesocricetus auratus, po, 1 h; administered orally one hour before intratracheal HNE (10 U/100 μL/lung); blood volume in BALF
# Protocol: (2) Inhibitory Effect on HNE-Induced Lung Hemorrhage in Hamsters Test compound or vehicle solution (Polyethyleneglycol 400:ethanol:distilled water=51:16:33) was administered orally to male Syrian hamsters. One hour after administration, animals were anesthetized with sodium pentobarbital (60 mg/kg, i.p.) and their tracheae were exposed. Saline (100 μL/lung) or HNE (10 U/100 μL/lung) were instilled intratracheally. One hour after the instillation of HNE, animals were exsanguinated by cutting the abdominal aorta. The trachea was re-exposed and cannulated, then bronchoalveolar lavage fluid (BALF) was collected by infusing and withdrawing of saline (2.5 mL/animal). Erythrocytes in 0.2 mL of BALF sample were hemolyzed by adding 1.8 mL of distilled water. The lysate was centrifuged (3000 r.p.m., 4° C., 10 minutes), and absorbance of the supernatant at 412 nm was measured spectrophotometrically to calculate blood volume in BALF using a standard curve.
# [2] = target: T1, Human Neutrophil Elastase (HNE) (Homo sapiens, UniProt P08246); assay: Inhibitory effects on human neutrophil elastase (HNE); format: biochemical; conditions: Dixon plot; substrate MeO-Suc-Ala-Ala-Pro-Val-p-nitroanilide; 0.1 M HEPES buffer pH 8.0; 37° C.
# T1 sequence (P08246 30-267): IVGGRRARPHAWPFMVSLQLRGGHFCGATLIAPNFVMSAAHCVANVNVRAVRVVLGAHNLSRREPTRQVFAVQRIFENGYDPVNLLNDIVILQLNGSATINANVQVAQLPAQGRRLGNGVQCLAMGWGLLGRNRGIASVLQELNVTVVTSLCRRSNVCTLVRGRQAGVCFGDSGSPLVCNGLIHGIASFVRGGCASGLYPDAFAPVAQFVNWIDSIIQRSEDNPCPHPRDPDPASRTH
# Protocol: (1) Inhibitory Effects on Human Neutrophil Elastase (HNE)
# Various concentrations of test compounds or DMSO as a vehicle were added to 0.1 M HEPES buffer (pH 8.0) containing the synthetic substrate MeO-Suc-Ala-Ala-Pro-Val-p-nitroanilide (final concentration, 0.1, 0.2 or 0.4 mM), 0.5 M sodium chloride solution and 0.1% Polyethyleneglycol 6000 in a final volume of 180 μL. This mixture was pre-incubated at 37° C. for 5 minutes. Then, the reaction was started by the addition of 20 μL of each enzyme solution (final concentration, 0.2U/mL). The hydrolysis rate of substrate (mO.D./minute) was measured by continuously monitoring absorbance at 405 nm for 10 minutes at 30 seconds intervals. The Ki values were determined by Dixon plot.
Ki [2] [nM],SMILES,ED50 [1] [mg/kg]
3.41,"COC(=O)N[C@H](C(=O)N1CCC[C@H]1C(=O)N[C@H](C(=O)c1nn(-c2ccccc2)c(=O)o1)C(C)C)C(C)C [Example 2, (methoxycarbonyl)-L-valyl-N-[(1S)-([3-phenyl-1,3,4-oxadiazolin-2-one-5-yl]carbonyl)-2-methylpropyl]-L-prolinamide]",18.6
4.27,"COC(=O)N[C@H](C(=O)N1CCC[C@H]1C(=O)N[C@H](C(=O)c1nn(Cc2ccsc2)c(=O)o1)C(C)C)C(C)C [Example 1, (methoxycarbonyl)-L-valyl-N-[(1S)-([3-(thiophen-3-ylmethyl)-1,3,4-oxadiazolin-2-one-5-yl]carbonyl)-2-methylpropyl]-L-prolinamide]",

# — patent US20030087831A1, “1,3,4-Oxadiazolin-2-one derivatives and drugs containing these derivatives as the active ingredient” (priority 1999, published 2003)
